The test system of the test is P12-Ichikawa. The test can be described thus: cell viability relative to DMSO control; higher = less cytotoxic. The note with it: 48 h. Put shortly: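 Viability values are per-plate percentages of DMSO wells, with background from cell-free wells. Library compounds in DMSO were pin-dosed, in an 11-point threefold series from 47 μM to 0.79 nM, onto NOMO1 or SEM (500 cells/well) or P12-Ichikawa (1000 cells/well) leukemia cells in 1536-well plates (5 μl). Those cells had been adapted for at least four passages in each medium, and CellTiter-Glo One luminescence was read after 48 h at 37°C.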

The mark [1] stands for this setting: HPLM + 10% dialyzed FBS, 0.000781 µM.
Where [2] appears, read: HPLM + 10% dialyzed FBS, 0.00234 µM.
Setting [3] is: HPLM + 10% dialyzed FBS, 0.00702 µM.
Where [4] appears, read: HPLM + 10% dialyzed FBS, 0.0211 µM.
Setting [5] is: HPLM + 10% dialyzed FBS, 0.0632 µM.
Where [6] appears, read: HPLM + 10% dialyzed FBS, 0.19 µM.
[7] abbreviates: HPLM + 10% dialyzed FBS, 0.569 µM.
Where [8] appears, read: HPLM + 10% dialyzed FBS, 1.71 µM.
[9] abbreviates: HPLM + 10% dialyzed FBS, 5.12 µM.
[10] abbreviates: HPLM + 10% dialyzed FBS, 15.4 µM.
The mark [11] stands for this setting: HPLM + 10% dialyzed FBS, 46.1 µM.
[12] abbreviates: RPMI 5 mM glucose + 10% dialyzed FBS, 0.000781 µM.
The mark [13] stands for this setting: RPMI 5 mM glucose + 10% dialyzed FBS, 0.00234 µM.
[14] abbreviates: RPMI 5 mM glucose + 10% dialyzed FBS, 0.00702 µM.
Where [15] appears, read: RPMI 5 mM glucose + 10% dialyzed FBS, 0.0211 µM.
Setting [16] is: RPMI 5 mM glucose + 10% dialyzed FBS, 0.0632 µM.
The mark [17] stands for this setting: RPMI 5 mM glucose + 10% dialyzed FBS, 0.19 µM.
[18] abbreviates: RPMI 5 mM glucose + 10% dialyzed FBS, 0.569 µM.
[19] abbreviates: RPMI 5 mM glucose + 10% dialyzed FBS, 1.71 µM.
The mark [20] stands for this setting: RPMI 5 mM glucose + 10% dialyzed FBS, 5.12 µM.
Setting [21] is: RPMI 5 mM glucose + 10% dialyzed FBS, 15.4 µM.
Setting [22] is: RPMI 5 mM glucose + 10% dialyzed FBS, 46.1 µM.

The record followed here is the supplement of paper PMC11451515.

The term cell viability denotes a read-out of living cells in per cent, often relative to untreated cells.

Molecules are shown by their SMILES.

Turning to `CC(C)C1=N[N](C\2=C1C(=O)N\C(=N2)CC3=CC=C(OCCO)C=C3)C4=C(Cl)C=CC=C4Cl`, the cell viability was determined as 116% under setting [1]; 116% under setting [2]; 109% under setting [3]; 108% under setting [4]; 107% under setting [5]; 44% under setting [6]. Besides, the cell viability is, setting by setting: under setting [7], 10.7%; under setting [8], 5.9%; under setting [9], 6.83%; under setting [10], 6.62%; under setting [11], 5.21%; under setting [12], 118%. Further, the cell viability by setting is: under setting [13], 129%; under setting [14], 117%; under setting [15], 124%; under setting [16], 127%; under setting [17], 31.8%; under setting [18], 10.9%. The cell viability under setting [19] is 5.95%, the cell viability under setting [20] was determined as 6.23%, the cell viability under setting [21] was determined as 6.55% and the cell viability under setting [22] was 3.77%.
For `CCCCc1oc2ccccc2c1C(=O)c1cc(I)c(OCCN(CC)CC)c(I)c1`, the cell viability by setting is: under setting [1], 114%; under setting [2], 114%; under setting [3], 113%; under setting [4], 109%; under setting [5], 115%; under setting [6], 102%. Also, the cell viability by setting is: under setting [7], 110%; under setting [8], 104%; under setting [9], 104%; under setting [10], 104%; under setting [11], 91.1%; under setting [12], 106%. Also, the cell viability under setting [13] amounted to 114%; the cell viability under setting [14] came to 115%; the cell viability under setting [15] worked out at 114%; the cell viability under setting [16] is 111%; the cell viability under setting [17] stood at 107%; the cell viability under setting [18] was found to be 116%. Besides, the cell viability worked out at 106% under setting [19], 103% under setting [20], 103% under setting [21] and 94.5% under setting [22].
`CCCCc1ccc(N[S+](=O)([O-])c2ccc(C)c(C(=O)N3CCN(c4cccc(C)c4C)CC3)c2)cc1`: the cell viability runs as follows: under setting [1], 125%; under setting [2], 125%; under setting [3], 122%; under setting [4], 96.6%; under setting [5], 118%; under setting [6], 125%. The cell viability runs as follows: under setting [7], 121%; under setting [8], 122%; under setting [9], 120%; under setting [10], 105%; under setting [11], 106%.
As for `CC1CCN(c2cc(N3CCN(C)CC3)ccc2NC(=O)c2cc(C#N)c[nH]2)CC1`, the cell viability runs as follows: under setting [12], 124%; under setting [13], 119%; under setting [14], 122%; under setting [15], 126%; under setting [16], 133%; under setting [17], 119%. Also, the cell viability is, setting by setting: under setting [18], 115%; under setting [19], 121%; under setting [20], 106%; under setting [21], 106%; under setting [22], 99.9%.
Turning to `COc1ccc2c(c1)CC[C@@H](CN(C)CC(=O)O)[C@H]2c1ccccc1`, the cell viability runs as follows: under setting [12], 116%; under setting [13], 122%; under setting [14], 129%; under setting [15], 119%; under setting [16], 119%; under setting [17], 116%. Also, the cell viability under setting [18] is 119%; the cell viability under setting [19] amounted to 105%; the cell viability under setting [20] was found to be 54.9%; the cell viability under setting [21] is 28.8%; the cell viability under setting [22] was 29.1%.
